For two compounds, mass density results are on record in the NIST ThermoML archive (doi:10.1016/j.jct.2012.09.017).

Numbers after ± are expanded uncertainties.

For the data set the following is noted: 101.33 kPa, Liquid, Vibrating tube method.

For orientation: mass density means mass per unit of volume. As for `CCCC[N+]1(C)CCCC1.O=C1O[B-]2(OC1=O)OC(=O)C(=O)O2` [1-butyl-1-methylpyrrolidinium bis(oxalato)borate], the mass density turned out to be 1235.34 ± 0.44 kg/m3 (328.15 K); 1231.29 ± 0.44 kg/m3 (333.15 K); 1227.23 ± 0.43 kg/m3 (338.15 K); 1223.19 ± 0.43 kg/m3 (343.15 K); 1219.17 ± 0.43 kg/m3 (348.15 K); 1215.17 ± 0.42 kg/m3 (353.15 K).

In the case of `CCCC[N+]1(C)CCCC1.N#C[B-](C#N)(C#N)C#N` [1-butyl-1-methylpyrrolidinium tetracyanoborate], the mass density was 986.48 ± 0.29 kg/m3 (283.15 K); 979.5 ± 0.29 kg/m3 (293.15 K); 972.59 ± 0.29 kg/m3 (303.15 K); 965.77 ± 0.29 kg/m3 (313.15 K); 959.04 ± 0.29 kg/m3 (323.15 K); 952.4 ± 0.29 kg/m3 (333.15 K). For the same compound, the mass density (343.15 K) turned out to be 945.83 ± 0.29 kg/m3.
